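96-well plates; 48 h exposure; 5 concentrations. Endpoints by linear interpolation between flanking doses. Not reached: highest tested concentration assigned. At the GI50, growth is halved.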 Activity calls are given as the source filed them. Rule as the data show it: active = GI50 up to about 1.1 µM and inactive = higher.
Tests used:
Assay in all cases: inhibition of tumour cell growth, NCI panel, 48 h
786-0 = system: 786-0
A498 = system: A498
A549 = system: A549
ACHN = system: ACHN
CCRF-CEM = system: CCRF-CEM
COLO 205 = system: COLO 205
DLD-1 = system: DLD-1
DMS-114 = system: DMS-114
EKVX = system: EKVX
HCC 2998 = system: HCC 2998
HCT-116 = system: HCT-116
HL-60 = system: HL-60
HOP-18 = system: HOP-18
HOP-62 = system: HOP-62
HOP-92 = system: HOP-92
HT-29 = system: HT-29
IGROV-1 = system: IGROV-1
K562 = system: K562
KM-20L2 = system: KM-20L2
KM12 = system: KM12
LOX IMVI = system: LOX IMVI
LXFL 529 = system: LXFL 529
M14 = system: M14
M19-MEL = system: M19-MEL
MOLT-4 = system: MOLT-4
Malme-3M = system: Malme-3M
NCI-H226 = system: NCI-H226
NCI-H23 = system: NCI-H23
NCI-H460 = system: NCI-H460
NCI-H522 = system: NCI-H522
OVCAR-3 = system: OVCAR-3
OVCAR-4 = system: OVCAR-4
OVCAR-8 = system: OVCAR-8
RXF 393 = system: RXF 393
SF-268 = system: SF-268
SF-295 = system: SF-295
SF-539 = system: SF-539
SK-MEL-28 = system: SK-MEL-28
SK-MEL-5 = system: SK-MEL-5
SK-OV-3 = system: SK-OV-3
SN12C = system: SN12C
SNB-19 = system: SNB-19
SNB-75 = system: SNB-75
SNB-78 = system: SNB-78
SR = system: SR
SW-620 = system: SW-620
TK-10 = system: TK-10
U-251 = system: U-251
UACC-257 = system: UACC-257
UACC-62 = system: UACC-62
UO-31 = system: UO-31
XF498 = system: XF498
CAKI-1 = system: CAKI-1
HCT-15 = system: HCT-15
MCF7 = system: MCF7
NCI/ADR-RES = system: NCI/ADR-RES
OVCAR-5 = system: OVCAR-5
RPMI-8226 = system: RPMI-8226
SK-MEL-2 = system: SK-MEL-2

## O=C1CC2C(=O)N(Cc3ccccc3)C1C=C2S(=O)(=O)c1ccccc1 (stereo not given)
786-0
  GI50: > 100 µM (inactive)
A498
  GI50: > 100 µM (inactive)
A549
  GI50: > 100 µM (inactive)
ACHN
  GI50: > 100 µM (inactive)
CCRF-CEM
  GI50: > 100 µM (inactive)
COLO 205
  GI50: > 100 µM (inactive)
DLD-1
  GI50: > 100 µM (inactive)
DMS-114
  GI50: > 100 µM (inactive)
EKVX
  GI50: > 100 µM (inactive)
HCC 2998
  GI50: > 100 µM (inactive)
HCT-116
  GI50: > 100 µM (inactive)
HL-60
  GI50: > 100 µM (inactive)
HOP-18
  GI50: > 100 µM (inactive)
HOP-62
  GI50: > 100 µM (inactive)
HOP-92
  GI50: > 100 µM (inactive)
HT-29
  GI50: > 100 µM (inactive)
IGROV-1
  GI50: > 100 µM (inactive)
K562
  GI50: > 100 µM (inactive)
KM-20L2
  GI50: > 100 µM (inactive)
KM12
  GI50: > 100 µM (inactive)
LOX IMVI
  GI50: > 100 µM (inactive)
LXFL 529
  GI50: > 100 µM (inactive)
M14
  GI50: > 100 µM (inactive)
M19-MEL
  GI50: > 100 µM (inactive)
MOLT-4
  GI50: > 100 µM (inactive)
Malme-3M
  GI50: > 100 µM (inactive)
NCI-H226
  GI50: > 100 µM (inactive)
NCI-H23
  GI50: > 100 µM (inactive)
NCI-H460
  GI50: > 100 µM (inactive)
NCI-H522
  GI50: > 100 µM (inactive)
OVCAR-3
  GI50: > 100 µM (inactive)
OVCAR-4
  GI50: > 100 µM (inactive)
OVCAR-8
  GI50: > 100 µM (inactive)
RXF 393
  GI50: > 100 µM (inactive)
SF-268
  GI50: > 100 µM (inactive)
SF-295
  GI50: > 100 µM (inactive)
SF-539
  GI50: > 100 µM (inactive)
SK-MEL-28
  GI50: > 100 µM (inactive)
SK-MEL-5
  GI50: > 100 µM (inactive)
SK-OV-3
  GI50: > 100 µM (inactive)
SN12C
  GI50: > 100 µM (inactive)
SNB-19
  GI50: > 100 µM (inactive)
SNB-75
  GI50: > 100 µM (inactive)
SNB-78
  GI50: > 100 µM (inactive)
SR
  GI50: > 100 µM (inactive)
SW-620
  GI50: > 100 µM (inactive)
TK-10
  GI50: > 100 µM (inactive)
U-251
  GI50: > 100 µM (inactive)
UACC-257
  GI50: > 100 µM (inactive)
UACC-62
  GI50: > 100 µM (inactive)
UO-31
  GI50: > 100 µM (inactive)
XF498
  GI50: > 100 µM (inactive)

## C=CC(=O)NC(=N)NC#N
786-0
  GI50: 163 µM (inactive)
A498
  GI50: 152 µM (inactive)
A549
  GI50: 195 µM (inactive)
ACHN
  GI50: 121 µM (inactive)
CAKI-1
  GI50: 69 µM (inactive)
CCRF-CEM
  GI50: 22.6 µM (inactive)
COLO 205
  GI50: 149 µM (inactive)
DLD-1
  GI50: 153 µM (inactive)
DMS-114
  GI50: 114 µM (inactive)
EKVX
  GI50: > 100 µM (inactive)
HCC 2998
  GI50: 182 µM (inactive)
HCT-116
  GI50: 189 µM (inactive)
HCT-15
  GI50: 120 µM
HL-60
  GI50: 26.9 µM (inactive)
HOP-18
  GI50: 148 µM (inactive)
HOP-62
  GI50: 210 µM (inactive)
HOP-92
  GI50: > 39.4 µM (inactive)
HT-29
  GI50: 189 µM (inactive)
IGROV-1
  GI50: 181 µM (inactive)
K562
  GI50: 35.9 µM (inactive)
KM-20L2
  GI50: 150 µM (inactive)
KM12
  GI50: > 100 µM (inactive)
LOX IMVI
  GI50: > 74.6 µM (inactive)
LXFL 529
  GI50: 124 µM (inactive)
M14
  GI50: 151 µM (inactive)
M19-MEL
  GI50: 140 µM (inactive)
MCF7
  GI50: > 68.7 µM (inactive)
Malme-3M
  GI50: 145 µM (inactive)
NCI-H226
  GI50: 200 µM (inactive)
NCI-H23
  GI50: 188 µM (inactive)
NCI-H460
  GI50: 176 µM (inactive)
NCI-H522
  GI50: 18 µM (inactive)
NCI/ADR-RES
  GI50: > 100 µM (inactive)
OVCAR-3
  GI50: 169 µM (inactive)
OVCAR-4
  GI50: 168 µM (inactive)
OVCAR-5
  GI50: 177 µM (inactive)
OVCAR-8
  GI50: 214 µM (inactive)
RPMI-8226
  GI50: 22 µM (inactive)
RXF 393
  GI50: > 73.5 µM (inactive)
SF-268
  GI50: 121 µM (inactive)
SF-295
  GI50: 313 µM (inactive)
SF-539
  GI50: 164 µM (inactive)
SK-MEL-28
  GI50: 131 µM (inactive)
SK-MEL-2
  GI50: > 100 µM (inactive)
SK-MEL-5
  GI50: 165 µM (inactive)
SK-OV-3
  GI50: 175 µM (inactive)
SN12C
  GI50: 157 µM (inactive)
SNB-19
  GI50: 363 µM (inactive)
SNB-75
  GI50: 155 µM (inactive)
SNB-78
  GI50: 179 µM (inactive)
SR
  GI50: 150 µM (inactive)
SW-620
  GI50: > 76.2 µM (inactive)
TK-10
  GI50: 142 µM (inactive)
U-251
  GI50: 158 µM (inactive)
UACC-257
  GI50: 125 µM (inactive)
UACC-62
  GI50: 157 µM (inactive)
UO-31
  GI50: 176 µM (inactive)
XF498
  GI50: 97.3 µM (inactive)
